Data published in patent publication US8058243B2, “Method for treating a brain cancer with ifenprodil” (HSC Research and Development Limited Partnership, priority 2006, dated 2011).
Counter-ions that a name gives are not always drawn. Like-named read-outs stand apart in the source and are kept apart here.

System: murine neural precursor cells (neurosphere cultures)
Experiment: HTS of LOPAC library against secondary neurosphere cultures, MTT proliferation assay at 3 μM, day 7 (z score, P value)
Format: cell-based, mouse
[1] = LOPAC library screen, 3 μM, MTT, secondary neurosphere cultures, day 7
[2] = LOPAC primary screen, neurosphere MTT proliferation, 3 μM, day 7
[3] = primary LOPAC screen, 3 μM, MTT, neurosphere proliferation
[4] = yes/no: significantly inhibited neurosphere proliferation in the primary screen
[5] = LOPAC library screen at 3 μM, secondary neurosphere cultures, MTT
[6] = LOPAC screen, neurosphere MTT proliferation, 3 μM, day 7
[7] = yes/no: significantly inhibited neurosphere proliferation (P<0.01) in primary screen
[8] = yes = significantly inhibited neurosphere proliferation (P<0.01) in the primary screen
[9] = yes/no: significantly inhibited neurosphere proliferation in primary screen

For `O=C(O)CCCCC1CCSS1` (stereo not drawn) [(B1)-alpha-Lipoic Acid], the “Z Score” value was 0.3418.
For `CSC(=N)N.CSC(=N)N.O=S(=O)(O)O` [S-Methylisothiourea hemisulfate], the Activity was “no”, the “Z Score” value was −0.2111 and the Z score was −0.211.
In the case of `O=c1[nH]c2ccccc2n1CCCN1CCC(n2c(=O)[nH]c3cc(Cl)ccc32)CC1` [Domperidone], the Activity is reported as “no”, the “Z Score” value [1] is reported as −1.525 and the Z score [2] is reported as −1.525.
With `CC(CN(C)C)CN1c2ccccc2CCc2ccccc21` (centres unmarked) [Trimipramine maleate] the “Z Score” value (LOPAC library screen, 3 μM, MTT, neurosphere cultures) was 0.5677, the Z score [3] was 0.568 and the Activity [4] was “no”.
`CCCCCCCCCCCCCCCCCCOCC(COP(=O)([O-])OCC[N+](C)(C)C)OC` (centres unmarked) [ET-18-OCH3] was tested, and the “Z Score” value [5] was −0.6259, the Z score [6] was −0.626 and the Activity [7] was “no”.
`Nc1nc(OCc2ccccc2)c2nc[nH]c2n1` [O6-benzylguanine] was tested, and the “Z Score” value [5] was −1.177, the Z score [3] was −1.177 and the Activity [4] was “no”.
In the case of `Nc1nnc(-c2cccc(Cl)c2Cl)c(N)n1` [Lamotrigine], the “Z Score” value [5] is reported as −1.095, the Z score [2] is reported as −1.095 and the Activity [7] is reported as “no”.
In the case of `c1ccc2c(c1)OCC(C1=NCCN1)O2` (centres unmarked) [Idazoxan hydrochloride], the “Z Score” value [1] is reported as −1.448, the Z score [2] is reported as −1.448 and the Activity [7] is reported as “no”.
`Nc1nc(Cl)nc2c1ncn2[C@@H]1O[C@H](COP(=O)([O-])OP(=O)([O-])OP(=O)([O-])[O-])[C@@H](O)[C@H]1O.[Na+].[Na+].[Na+].[Na+]` [2-Chloroadenosine triphosphate tetrasodium] was tested, and the “Z Score” value (168 h, 3 µM) was 1.149, the Z score (168 h, 3 µM) was 1.149 and the Activity [7] was “no”.
With `Cc1cnc(NC(=O)C2=C(O)c3ccccc3S(=O)(=O)N2C)s1` [Meloxicam sodium] the Activity [8] was “no”.
For `OC[C@H]1O[C@@H](n2cnc3c(NC4CCCC4)ncnc32)[C@H](O)[C@@H]1O` [N6-Cyclopentyladenosine], the “Z Score” value (168 h, 3 µM) was −0.7839, the Z score (168 h, 3 µM) was −0.784 and the Activity [7] was “no”.
For `O=C(c1ccc(OCCN2CCCCC2)cc1)c1c(-c2ccc(O)cc2)sc2cc(O)ccc12` [Raloxifene hydrochloride], the “Z Score” value [1] was −9.222, the Z score [2] was −9.222 and the Activity [8] was “yes”.
`N[C@@H](CCC(=O)N[C@@H](CSN=O)C(=O)NCC(=O)O)C(=O)O` [S-Nitrosoglutathione] was tested, and the “Z Score” value (168 h, 3 µM) was 0.6978, the Z score (168 h, 3 µM) was 0.698 and the Activity [8] was “no”.
With `Cl.O=c1cc(N2CCOCC2)oc2c(-c3ccccc3)cccc12` [LY-294,002 hydrochloride] the “Z Score” value was −1.217, the Z score [2] was −1.217 and the Activity [7] was “no”.
With `CC[C@H](C)C(=O)O[C@H]1CCC=C2C=C[C@H](C)[C@H](CC[C@@H]3C[C@@H](O)CC(=O)O3)[C@H]21` [Mevastatin] the “Z Score” value [1] was −6.278, the Z score [2] was −6.278 and the Activity [8] was “yes”.
`CNC(=O)Oc1ccc2c(c1)[C@]1(C)CCN(C)[C@@H]1N2C` [(−)-Physostigmine] was tested, and the “Z Score” value was −0.2178, the Z score [2] was −0.218 and the Activity [7] was “no”.
In the case of `CC(=O)O[C@H]1C(=O)[C@@]2(C)[C@H]([C@H](OC(=O)c3ccccc3)[C@]3(O)C[C@H](OC(=O)[C@H](O)[C@@H](NC(=O)c4ccccc4)c4ccccc4)C(C)=C1C3(C)C)[C@]1(OC(C)=O)CO[C@@H]1C[C@@H]2O` [Taxol], the “Z Score” value [1] is reported as −11.27, the Z score [2] is reported as −11.274 and the Activity [8] is reported as “yes”.
For `CC(C)(C(=O)O)c1ccc(C(O)CCCN2CCC(C(O)(c3ccccc3)c3ccccc3)CC2)cc1` (centres unmarked) [Fexofenadine hydrochloride], the Activity was “no”, the “Z Score” value [5] was −0.7572 and the Z score [2] was −0.757.
`CCCCCCCCCCCCCCCC(=O)NCCO` [Palmitoylethanolamide] was tested, and the Activity was “no”, the “Z Score” value [5] was −0.9134 and the Z score [2] was −0.913.
`NC/C=C\C(=O)O` [cis-4-Aminocrotonic acid] was tested, and the “Z Score” value [5] was −1.088, the Z score [3] was −1.088 and the Activity [4] was “no”.
With `C[N+](C)(C)CC#CCN1CCCC1=O` [Oxotremorine methiodide] the “Z Score” value was −0.7002, the Z score [2] was −0.700 and the Activity [9] was “no”.
For `CC(N)Cc1c[nH]c2ccc(OCc3cccs3)cc12` (centres unmarked) [BW 723C86], the “Z Score” value was 0.7247, the Z score [6] was 0.725 and the Activity [7] was “no”.
`Cl.Cl.N=C(N)c1ccc(N)cc1` [4-Aminobenzamidine dihydrochloride] was tested, and the “Z Score” value was −1.287, the Z score [2] was −1.287 and the Activity [8] was “no”.
In the case of `Cl.NCC(O)c1ccc(O)cc1` (racemic) [(±)-Octopamine hydrochloride], the Z score [2] is reported as −1.567 and the Activity [9] is reported as “no”.
`Br.Br.N=C(N)NCCSSCCNC(=N)N` [Guanidinoethyl disulfide dihydrobromide] was tested, and the “Z Score” value (168 h, 3 µM) was −4.521, the Z score (168 h, 3 µM) was −4.521 and the Activity [8] was “yes”.
For NSC 95397, the “Z Score” value was −1.098, the Z score [2] was −1.098 and the Activity (yes/no: significantly inhibited neurosphere proliferation (P<0.01) in the primary screen) was “no”.
For `NC(CCCP(=O)(O)O)C(=O)O` (centres unmarked) [(B1)-2-Amino-5-phosphonopentanoic acid], the “Z Score” value was −1.045.
